Legend:
convulsive seizures = experiment: Acute intranasal treatment of convulsive seizures in pediatric human subjects; assay type: in vivo; settings: human subjects weighing over 60 lbs
Method: Three male human pediatric subjects, each under the age of 16, undergoing convulsive seizures, were administered from two to four 0.1 ml doses (each dose 5 mg delta-9-tetrahydrocannabinol with 8% by volume linalool) of the product disclosed herein. Administration was achieved via a nasal spray administered within one or more of the subject's nostrils using the delivery device disclosed herein by a caregiver during the occurrence of the convulsive seizure. In subject one, administered 3 doses, a visible state of cessation of the convulsions of the seizure was achieved by 21 seconds from first dose administration. In subject two, administered 4 doses, a visible state of cessation of the convulsions of the seizure was achieved by 36 seconds from first dose administration. In subject three, administered 2 doses, a visible state of cessation of the convulsions of the seizure was achieved by 27 seconds from first dose administration.
Thus, acute treatment of the convulsive seizure using an average dose of 3×0.1 ml of the 5 mg delta-9-tetrahydrocannabinol with 8% by volume linalool achieved cessation of the convulsion symptom of the convulsive seizure within a mean time of 28 seconds from first dose administration.

rat model of epilepsy = settings: intraperitoneal injection, cited from earlier work

CCCCCc1cc(O)c2c(c1)OC(C)(C)[C@@H]1CCC(C)=C[C@@H]21 [THC, delta-9-tetrahydrocannabinol]
lowest administered THC dose per body weight at which seizures in progress were stopped (convulsive seizures): around 0.37 mg/kg | lowest total administered THC dose at which seizures in progress were treated and stopped (convulsive seizures): 10.0 mg | seizure prevention (rat model of epilepsy; 30.0 mg/kg): can prevent seizures from occurring | ED50 anticonvulsant effect (seizure prevention) (rat model of epilepsy): 15.0 mg/kg | dose at which anticonvulsant effect starts (rat model of epilepsy): 5.0 mg/kg
